Assay results from ChEMBL document CHEMBL1201862, “PubChem BioAssay data set” (2004).
The source made the active and inactive calls.

How the values were obtained:
[1] = HeLa 2N DNA content increase, dose response, cell-based, IC50 (AID 1117349); assay type: functional
[2] = HeLa 4N DNA content increase, dose response, cell-based, IC50 (AID 1117351); assay type: functional
[3] = A549 cell cytotoxicity, dose response, cytotoxicity control, plate reader, cherry-pick, antagonist series (AID 743412); assay type: functional, cell-based
[4] = HEK293 cell cytotoxicity, dose response, cytotoxicity control, plate reader, cherry-picked samples (AID 743446); assay type: functional, cell-based
[5] = target: T1, Heat shock factor protein 1 (Mus musculus, UniProt P38532); assay: HSF1 potentiators in luciferase reporter cells, confirmation, cell-based, NIH3T3, luminescence, dose retest (AID 435004); assay type: functional;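 also: stress induced by proteasome inhibitor MG132 added 30 min after compound; luciferase reporter driven by HSF1 response element in NIH3T3 cells; actives raise luminescence as potentiators of the MG132 stress response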
T1 sequence (P38532 whole entry): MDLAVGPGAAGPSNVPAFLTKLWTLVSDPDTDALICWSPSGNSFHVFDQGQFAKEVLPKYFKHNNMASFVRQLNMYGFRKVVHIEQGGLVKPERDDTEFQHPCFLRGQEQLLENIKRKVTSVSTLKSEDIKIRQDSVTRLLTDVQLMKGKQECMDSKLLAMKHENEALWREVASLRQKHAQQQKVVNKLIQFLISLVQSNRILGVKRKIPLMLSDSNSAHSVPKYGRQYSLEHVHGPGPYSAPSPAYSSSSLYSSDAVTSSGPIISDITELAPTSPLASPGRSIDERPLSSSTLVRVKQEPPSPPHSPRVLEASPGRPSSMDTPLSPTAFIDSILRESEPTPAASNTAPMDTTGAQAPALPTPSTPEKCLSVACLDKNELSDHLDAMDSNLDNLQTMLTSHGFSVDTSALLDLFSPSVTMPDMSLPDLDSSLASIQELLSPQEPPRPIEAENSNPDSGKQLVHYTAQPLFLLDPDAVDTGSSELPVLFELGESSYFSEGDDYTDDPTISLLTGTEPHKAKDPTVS

Genome polyprotein = Genome polyprotein (dengue virus type 2, UniProt P29990); assay: Dengue-2 NS5 methyltransferase inhibitors, primary screen, biochemical, confirmation dose response (AID 588689); assay type: functional
Genome polyprotein, sequence (P29990 2492-3391 limits assumed): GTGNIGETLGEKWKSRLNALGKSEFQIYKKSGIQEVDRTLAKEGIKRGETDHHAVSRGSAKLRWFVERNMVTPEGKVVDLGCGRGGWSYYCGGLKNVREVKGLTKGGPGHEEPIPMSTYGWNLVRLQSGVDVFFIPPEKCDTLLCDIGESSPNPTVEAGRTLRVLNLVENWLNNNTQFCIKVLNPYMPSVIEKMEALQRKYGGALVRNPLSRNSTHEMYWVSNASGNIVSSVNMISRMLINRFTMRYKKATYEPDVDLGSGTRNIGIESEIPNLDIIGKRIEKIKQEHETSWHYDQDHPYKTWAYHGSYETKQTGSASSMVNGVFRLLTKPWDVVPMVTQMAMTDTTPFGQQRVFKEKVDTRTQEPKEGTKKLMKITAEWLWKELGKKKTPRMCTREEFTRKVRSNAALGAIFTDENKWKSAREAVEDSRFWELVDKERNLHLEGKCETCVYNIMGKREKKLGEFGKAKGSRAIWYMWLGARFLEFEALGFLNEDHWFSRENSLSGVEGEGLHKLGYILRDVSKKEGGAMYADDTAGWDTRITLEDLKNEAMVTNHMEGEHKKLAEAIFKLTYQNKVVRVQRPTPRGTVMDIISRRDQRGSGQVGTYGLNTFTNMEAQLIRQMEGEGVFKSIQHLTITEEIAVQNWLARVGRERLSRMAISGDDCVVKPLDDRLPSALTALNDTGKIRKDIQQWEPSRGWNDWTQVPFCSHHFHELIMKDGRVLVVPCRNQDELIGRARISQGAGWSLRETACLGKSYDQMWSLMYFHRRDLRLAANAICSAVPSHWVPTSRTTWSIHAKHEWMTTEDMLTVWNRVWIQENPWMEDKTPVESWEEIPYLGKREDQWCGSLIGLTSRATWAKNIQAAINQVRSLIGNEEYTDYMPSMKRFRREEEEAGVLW

[6] = target: Histone-lysine N-methyltransferase NSD2 (Homo sapiens, UniProt O96028); assay type: biochemical
Histone-lysine N-methyltransferase NSD2, sequence (O96028 whole entry): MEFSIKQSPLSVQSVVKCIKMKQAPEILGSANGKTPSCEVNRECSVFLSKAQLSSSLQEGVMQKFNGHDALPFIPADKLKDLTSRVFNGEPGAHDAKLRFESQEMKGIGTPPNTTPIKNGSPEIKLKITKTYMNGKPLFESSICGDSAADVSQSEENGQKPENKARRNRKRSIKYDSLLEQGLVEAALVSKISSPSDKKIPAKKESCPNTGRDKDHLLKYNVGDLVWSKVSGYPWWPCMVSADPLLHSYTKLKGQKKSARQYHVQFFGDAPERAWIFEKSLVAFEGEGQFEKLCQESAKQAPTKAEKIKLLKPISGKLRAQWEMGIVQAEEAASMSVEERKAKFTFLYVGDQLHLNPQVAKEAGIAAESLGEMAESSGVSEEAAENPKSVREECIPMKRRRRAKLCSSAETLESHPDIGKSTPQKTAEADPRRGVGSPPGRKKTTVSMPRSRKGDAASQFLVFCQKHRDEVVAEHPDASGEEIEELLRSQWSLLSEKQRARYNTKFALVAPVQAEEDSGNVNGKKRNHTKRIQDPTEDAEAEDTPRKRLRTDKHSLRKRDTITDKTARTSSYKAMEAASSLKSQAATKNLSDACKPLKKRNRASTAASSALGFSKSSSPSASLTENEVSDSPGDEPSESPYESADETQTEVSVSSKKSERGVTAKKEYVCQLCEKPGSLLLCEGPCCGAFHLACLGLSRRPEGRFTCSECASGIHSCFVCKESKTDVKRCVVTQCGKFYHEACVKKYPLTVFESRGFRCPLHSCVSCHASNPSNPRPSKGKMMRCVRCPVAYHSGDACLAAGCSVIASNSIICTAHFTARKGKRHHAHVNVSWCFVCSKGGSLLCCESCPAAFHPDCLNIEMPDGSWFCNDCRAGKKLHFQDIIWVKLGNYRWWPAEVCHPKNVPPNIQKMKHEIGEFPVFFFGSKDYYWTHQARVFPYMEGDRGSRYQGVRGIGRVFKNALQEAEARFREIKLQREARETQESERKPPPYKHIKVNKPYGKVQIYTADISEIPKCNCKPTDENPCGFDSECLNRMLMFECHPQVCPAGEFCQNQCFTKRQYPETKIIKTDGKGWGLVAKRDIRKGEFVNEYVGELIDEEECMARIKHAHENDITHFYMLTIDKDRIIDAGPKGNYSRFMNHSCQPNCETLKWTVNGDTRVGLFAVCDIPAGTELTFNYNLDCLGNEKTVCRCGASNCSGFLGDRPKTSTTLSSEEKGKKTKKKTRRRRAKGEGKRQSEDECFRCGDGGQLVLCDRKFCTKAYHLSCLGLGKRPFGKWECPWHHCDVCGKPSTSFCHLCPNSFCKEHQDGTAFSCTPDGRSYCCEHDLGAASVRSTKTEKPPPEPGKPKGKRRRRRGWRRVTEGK

[7] = HepG2 cell cytotoxicity, dose response, cytotoxicity control, plate reader, cherry-pick, antagonist series (AID 743416); assay type: functional, cell-based
[8] = LGR2 antagonists, dose response, cell-based, HEK293, CRE-luciferase reporter, cherry pick, set 2 (AID 743343); assay type: functional;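 also: transfected cells were stimulated with diluted bursicon conditioned medium after compound addition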
[9] = MC4R antagonists, dose response, counter-screen for LGR2 antagonist project, cell-based, plate reader, cherry pick (AID 743444); assay type: functional;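 also: transfected HEK 293 cells stimulated with alpha-MSH peptide; potency of inhibitors of the alpha-MSH evoked signal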
[10] = P. falciparum 3D7-ScDHODH growth inhibitors, dose response, SYBR Green, dry powder samples (AID 1159570); assay type: functional, cell-based;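 also: parasite growth measured after 72 hours of compound exposure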
[11] = HepG2 cell cytotoxicity, dose response, cytotoxicity control, plate reader, dry powder samples (AID 1159569); assay type: functional, cell-based;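 also: inhibitor potency with signal falling toward the positive control level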
[12] = P. falciparum Dd2 growth inhibitors, dose response, SYBR Green, cherry-picked samples (AID 1159567); assay type: functional, cell-based
[13] = P. falciparum Dd2 growth inhibitors, dose response, SYBR Green, dry powder samples (AID 1159566); assay type: functional, cell-based;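 also: potency for growth inhibition with lower SYBR green DNA signal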
[14] = P. falciparum ATP4 D1247Y mutant growth inhibitors, dose response, NITD609-resistant line, SYBR Green, dry powder (AID 1159571); assay type: functional, cell-based;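 also: parasites synchronized at ring stage by sorbitol before testing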
[15] = Luminescence-based cell-based high throughput dose response assay to identify activators of the DAF-12 from the parasite S. stercoralis (ssDAF-12).; assay type: functional
[16] = target: T2, Oxysterols receptor LXR-beta (Homo sapiens, UniProt P55055); assay: LXR agonists, Gal4 luciferase reporter, dose response, counter-screen for ssDAF-12 agonist project, cell-based, luminescence, HEK293, S. stercoralis campaign (AID 720737); assay type: functional; conditions: read-out: IC50 (the source's name)
T2 sequence (P55055 whole entry): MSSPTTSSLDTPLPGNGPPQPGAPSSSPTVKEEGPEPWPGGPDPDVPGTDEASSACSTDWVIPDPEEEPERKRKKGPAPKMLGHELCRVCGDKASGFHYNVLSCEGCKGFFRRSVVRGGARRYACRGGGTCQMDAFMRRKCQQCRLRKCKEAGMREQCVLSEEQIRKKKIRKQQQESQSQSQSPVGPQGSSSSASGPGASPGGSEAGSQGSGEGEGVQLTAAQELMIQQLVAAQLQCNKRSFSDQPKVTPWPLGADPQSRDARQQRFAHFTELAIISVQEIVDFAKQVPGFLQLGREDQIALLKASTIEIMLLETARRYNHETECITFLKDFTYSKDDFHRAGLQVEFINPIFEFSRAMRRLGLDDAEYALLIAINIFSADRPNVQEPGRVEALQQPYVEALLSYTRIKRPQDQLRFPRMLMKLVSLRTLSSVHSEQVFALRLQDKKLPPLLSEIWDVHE

[17] = P. falciparum late gametocyte killing, dose response, luminescence (AID 1117278); assay type: functional, cell-based;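 also: gametocytes exposed to compound for 24 hours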
[18] = Jurkat T cell cytotoxicity, dose response, cytotoxicity control for P. falciparum gametocyte viability project, luminescence (AID 1117277); assay type: functional, cell-based;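 also: potency reflects loss of cellular ATP meaning fewer viable cells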
fMet-Leu-Phe receptor = fMet-Leu-Phe receptor (Homo sapiens, UniProt P21462); assay: FPR ligands, dose response (AID 519); assay type: functional
fMet-Leu-Phe receptor, sequence (P21462 whole entry): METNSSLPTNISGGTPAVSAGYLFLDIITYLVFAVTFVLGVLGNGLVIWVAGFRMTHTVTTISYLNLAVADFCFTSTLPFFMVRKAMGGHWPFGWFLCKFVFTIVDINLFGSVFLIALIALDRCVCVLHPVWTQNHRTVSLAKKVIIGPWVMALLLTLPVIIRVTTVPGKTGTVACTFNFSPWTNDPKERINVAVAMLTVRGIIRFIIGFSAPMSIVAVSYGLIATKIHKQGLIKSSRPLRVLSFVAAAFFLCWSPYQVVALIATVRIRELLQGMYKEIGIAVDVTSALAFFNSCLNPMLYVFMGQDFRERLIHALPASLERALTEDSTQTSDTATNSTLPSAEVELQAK

[19] = human group III sPLA2 inhibitors, dose response, biochemical, QFRET, IC50 (AID 743457);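 also: green fluorescence rise as the enzyme cleaves BODIPY PC-A2 in liposomes; potency for inhibition of the enzyme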
Kallikrein-7 = Kallikrein-7 (Homo sapiens, UniProt P49862); assay: Fluorescence Intensity-based biochemical primary high throughput dose response assay to identify activators of kallikrein-7 (K7) zymogen.
Kallikrein-7, sequence (P49862 whole entry): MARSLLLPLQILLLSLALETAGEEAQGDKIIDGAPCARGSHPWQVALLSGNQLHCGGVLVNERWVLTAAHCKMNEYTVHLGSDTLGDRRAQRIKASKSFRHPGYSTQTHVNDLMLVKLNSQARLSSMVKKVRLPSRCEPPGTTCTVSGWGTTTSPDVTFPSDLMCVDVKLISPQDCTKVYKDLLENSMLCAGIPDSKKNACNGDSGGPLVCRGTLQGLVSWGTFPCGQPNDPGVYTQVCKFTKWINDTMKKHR

Q: Which results are given for C1CN(P2(N3CC3)=NP(N3CC3)(N3CC3)=NP(N3CC3)(N3CC3)=N2)CCO1 (stereo not given) [FOTRETAMINE]?
A: IC50 [1]: > 10 µM (inactive); IC50 [2]: > 10 µM (inactive)

Q: What does the source list for O=c1cc(-c2c(F)c(F)c(F)c(F)c2F)oc2ccccc12?
A: AC50 [3]: 17.4 µM (active); AC50 [4]: 37.5 µM (active)

Q: What does the source list for O=C(O)CN1C(=O)/C(=C\c2cc(Br)ccc2OCc2ccc(F)cc2)SC1=S?
A: EC50 [5]: > 260 µM (inactive); IC50 (Genome polyprotein): 31.4 µM (active); AC50 [6]: 18.5 µM (active)

Q: Which AC50 [3] does the source give for COc1cc(OC)nc(Nc2nc(C(N)Cc3ccc(C(F)(F)F)cc3)cs2)n1 (stereo not given) here?
A: The AC50 was 7.58 µM (active).

Q: What about the AC50 [7] of the same compound?
A: The AC50 was 7.18 µM (active).

Q: And the AC50 [8]?
A: Its AC50 is 18.9 µM (active).

Q: And the AC50 [9]?
A: The AC50 was 24.8 µM (active).

Q: And the AC50 [4]?
A: The AC50 was 15.7 µM (active).

Q: With C[C@H]1CN([C@@H](C)CO)C(=O)c2c(c3ccccc3n2C)-c2ccccc2CO[C@H]1CN(C)C(=O)Nc1cccc(Cl)c1Cl as the compound, how does the AC50 [10] read?
A: Its AC50 is 1.77 µM (active).

Q: What about the AC50 [11] of the same compound?
A: Its AC50 is 18.7 µM (active).

Q: What about the AC50 [12] of the same compound?
A: Its AC50 is 3.09 µM (active).

Q: And the AC50 [13]?
A: Its AC50 is 0.785 µM (active).

Q: And the AC50 [14]?
A: Its AC50 is 0.897 µM (active).

Q: For O=C(NCCc1c[nH]c2ccccc12)c1cnccn1, which IC50 [15] is on record?
A: The IC50 was > 67.5 µM (inactive).

Q: And the EC50 [16]?
A: The EC50 was > 67.5 µM (inactive).

Q: What about the IC50 [17] of the same compound?
A: Its IC50 is > 109 µM (inactive).

Q: And the IC50 [18]?
A: Its IC50 is > 83.3 µM (inactive).

Q: Which Ki (fMet-Leu-Phe receptor) does the source give for COCCCN1C(=O)C(O)=C(C(=O)c2ccco2)C1c1cccc(Br)c1 (stereo not given) here?
A: Its Ki is 31.2 µM (inactive).

Q: With CCOc1ccc(-n2c(N)c(-c3nc4ccccc4[nH]3)sc2=S)cc1 as the compound, how does the IC50 [19] read?
A: Its IC50 is > 122 µM (inactive).

Q: For Cc1cc(N2C(=O)C(O)=C(C(=O)c3ccc(F)cc3)C2c2cccc(Br)c2)no1 (stereo not given), which Ki (fMet-Leu-Phe receptor) is on record?
A: The Ki was > 66.7 µM (inactive).

Q: With Nc1ccc(Cl)cc1C(=O)OCC(=O)NC1CCS(=O)(=O)C1 (stereo not given) as the compound, how does the EC50 (Kallikrein-7) read?
A: Its EC50 is > 7.72 µM (active).

Q: For O=S(=O)(c1ccc(F)cc1)N1CCCCN2[C@@H](CO)[C@@H](c3ccc(C4=CCCCC4)cc3)[C@@H]2C1, which AC50 [10] is on record?
A: The AC50 was 1.15 µM (active).

Q: What about the AC50 [11] of the same compound?
A: Its AC50 is 12.8 µM (active).

Q: And the AC50 [12]?
A: Its AC50 is 1.69 µM (active).

Q: And the AC50 [13]?
A: The AC50 was 1.07 µM (active).

Q: And the AC50 [14]?
A: The AC50 was 0.915 µM (active).
